We go through three compounds from ChEMBL document CHEMBL1201862, “PubChem BioAssay data set” (2004).

Calls of active or inactive are those of the source.

For assay [1], the target named is G2/mitotic-specific cyclin-B1 (Homo sapiens, UniProt P14635). In words: Counterscreen assay for inhibitors of Wee1 degradation: dose response cell-based assay to identify inhibitors of cyclin B degradation. [Related pubchem assays: 1410, 1321 ]. Type of assay: functional. (In general: Counterscreens check selectivity or assay interference.)
Chain of G2/mitotic-specific cyclin-B1 (P14635 whole entry): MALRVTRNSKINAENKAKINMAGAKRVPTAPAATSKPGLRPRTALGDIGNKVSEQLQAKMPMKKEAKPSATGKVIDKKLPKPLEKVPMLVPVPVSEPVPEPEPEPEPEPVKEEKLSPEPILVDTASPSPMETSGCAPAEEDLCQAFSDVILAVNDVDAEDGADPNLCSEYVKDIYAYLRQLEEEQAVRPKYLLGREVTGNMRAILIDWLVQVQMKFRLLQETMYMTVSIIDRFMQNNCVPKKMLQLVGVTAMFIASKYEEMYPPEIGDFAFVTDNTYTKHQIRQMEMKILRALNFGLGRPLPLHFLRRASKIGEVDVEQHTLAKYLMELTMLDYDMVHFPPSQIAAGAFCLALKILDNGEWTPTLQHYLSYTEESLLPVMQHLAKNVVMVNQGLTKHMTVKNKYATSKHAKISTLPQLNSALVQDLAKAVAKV
In another assay the target is Wee1-like protein kinase (Homo sapiens, UniProt P30291). In words: Dose Response Cell-based Assay for Inhibitors of Wee1 Degradation. [Related pubchem assays: 1410, 1321 ]. The assay is classed as functional.
Chain of Wee1-like protein kinase (P30291 whole entry): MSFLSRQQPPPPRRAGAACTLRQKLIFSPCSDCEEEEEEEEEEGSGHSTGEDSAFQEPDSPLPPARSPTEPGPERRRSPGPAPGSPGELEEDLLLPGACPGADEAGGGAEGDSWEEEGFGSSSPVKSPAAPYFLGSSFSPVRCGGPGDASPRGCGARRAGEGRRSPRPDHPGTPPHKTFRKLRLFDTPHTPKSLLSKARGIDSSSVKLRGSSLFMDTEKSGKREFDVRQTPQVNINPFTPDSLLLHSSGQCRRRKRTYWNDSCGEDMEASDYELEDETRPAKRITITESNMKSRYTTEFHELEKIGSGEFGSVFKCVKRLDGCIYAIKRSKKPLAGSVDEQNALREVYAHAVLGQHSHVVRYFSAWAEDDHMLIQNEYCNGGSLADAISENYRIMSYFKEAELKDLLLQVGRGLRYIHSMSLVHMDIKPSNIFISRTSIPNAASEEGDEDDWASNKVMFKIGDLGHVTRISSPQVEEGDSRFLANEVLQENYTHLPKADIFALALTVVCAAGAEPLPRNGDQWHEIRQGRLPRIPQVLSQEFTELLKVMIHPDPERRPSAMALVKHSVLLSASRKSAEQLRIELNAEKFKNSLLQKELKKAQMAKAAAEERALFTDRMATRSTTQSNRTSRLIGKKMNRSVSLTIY
Assay [2] can be described thus: HEp-2 cell cytotoxicity, dose response, cytotoxicity control for RSV inhibitor project, HTS (AID 2410). Type of assay: functional. The following applies: human respiratory syncytial virus.
A further assay addresses NS3 (Hepatitis C virus, UniProt A3EZJ3). Put plainly: PubChem AID 2173. Set-up: species or system Hepacivirus hominis.
The nature of assay [3]: luciferase reporter signal reduction – luminescence, H4-C neuroglioblastoma cells, dose response (AID 2458).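 Also: H4 neuroglioblastoma cells stably carrying a luciferase reporter gene fusion.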 Type of assay: functional, cell-based.
The next assay can be described thus: cells. The assay is classed as functional, cell-based.
A short description of assay [4]: Luminescence Cell-Based Dose Response HTS to Identify Inhibitors of 5'UTR Stem-Loop Driven Prion Protein mRNA Translation in H4 Neuroglioblastoma Cells. [Related pubchem assays: 1827 (Project Summary), 1813 (Primary HTS)]. The assay is classed as functional.
The nature of assay [5]: inhibitors of SNCA 5'UTR-driven reporter translation, confirmation, H4 neuroglioma cells, luminescence (AID 1988). The assay is classed as functional, cell-based.
Assay [6] in a line: inhibitors of SNCA 5'UTR-driven translation, confirmation, luminescence, H4 neuroglioblastoma cells, dose confirmation (AID 2454).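 Also: H4 neuroglioblastoma cells carrying an alpha-synuclein 5'UTR luciferase reporter; potency for inhibition of the luciferase signal.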 The assay is classed as functional, cell-based.
Assay [7] is described as follows: cytotoxicity in HEK-293T cells, dose response, cytotoxicity control for BCR NF-kB inhibitor project, luminescence, B-cell screen hits (AID 489021).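 Also: HEK-293T cells carrying an NF-kB luciferase reporter; cells exposed to compound for about 14 hours before viability readout.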 Type of assay: functional, cell-based.

Chain of NS3 (A3EZJ3 whole entry, the tested form may be a part): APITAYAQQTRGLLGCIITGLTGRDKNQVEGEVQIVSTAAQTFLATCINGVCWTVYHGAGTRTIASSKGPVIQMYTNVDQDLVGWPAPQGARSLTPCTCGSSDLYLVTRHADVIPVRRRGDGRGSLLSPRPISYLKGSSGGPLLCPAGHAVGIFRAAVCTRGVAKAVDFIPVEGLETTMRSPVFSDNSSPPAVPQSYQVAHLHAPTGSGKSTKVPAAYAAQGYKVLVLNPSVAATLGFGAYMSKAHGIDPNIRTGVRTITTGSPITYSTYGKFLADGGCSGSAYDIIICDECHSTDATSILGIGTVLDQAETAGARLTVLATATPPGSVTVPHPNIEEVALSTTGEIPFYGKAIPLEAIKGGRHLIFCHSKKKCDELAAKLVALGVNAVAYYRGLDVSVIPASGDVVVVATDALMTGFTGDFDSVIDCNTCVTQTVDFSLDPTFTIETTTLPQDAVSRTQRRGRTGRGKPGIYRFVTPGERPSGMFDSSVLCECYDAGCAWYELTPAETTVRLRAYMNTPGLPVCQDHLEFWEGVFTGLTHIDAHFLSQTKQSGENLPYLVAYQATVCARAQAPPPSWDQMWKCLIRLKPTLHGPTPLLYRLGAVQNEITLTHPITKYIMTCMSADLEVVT

Turning to `COc1ccccc1-c1ccc(SCc2ccccc2F)nn1`, the concentration giving a half-maximal response (EC50) (in [1]; at Wee1-like protein kinase) was > 49.7 µM (not active) each time.

On to `Cc1cccc(NC2=NC(=O)/C(=C/C=C/c3ccco3)S2)c1C`, for which, in assay [2], the cytotoxic concentration (CC50) was 12.1 µM (active). For the same compound, the concentration for half-maximal inhibition (IC50) on NS3 was 5.49 µM (active).

As for `O=C(Nc1ccc(NC(=O)c2cc3ccccc3o2)cc1)c1ccc2c(c1)OCCO2`, the concentration giving a half-maximal response (EC50) in [3] was 3.02 µM (active); in the assay “cells”, > 12 µM (not active); in assay [4], 12.7 µM (active); in assay [5], < 0.1 µM (active); in assay [6] it was 2.35 µM (active). The IC50 in [7] was > 80 µM (inactive).

The term EC50 denotes the concentration that produces a half-maximal response. As a reminder, the CC50 is the concentration giving 50% cytotoxicity. The term IC50 denotes the midpoint of a concentration-inhibition curve.
